Consider 18 compounds from patent US9828338B2, “Carbamate derivatives of lactam based N-acylethanolamine acid amidase (NAAA) inhibitors” (The Regents of the University of California, priority 2013, dated 2017).

In one test the target is T1, human NAAA (Homo sapiens, UniProt Q02083).
T1 construct: made in house; host or cells: HEK293 cells, stably transfected; soluble lysosomal fraction used as enzyme source
T1 sequence (Q02083 29-359): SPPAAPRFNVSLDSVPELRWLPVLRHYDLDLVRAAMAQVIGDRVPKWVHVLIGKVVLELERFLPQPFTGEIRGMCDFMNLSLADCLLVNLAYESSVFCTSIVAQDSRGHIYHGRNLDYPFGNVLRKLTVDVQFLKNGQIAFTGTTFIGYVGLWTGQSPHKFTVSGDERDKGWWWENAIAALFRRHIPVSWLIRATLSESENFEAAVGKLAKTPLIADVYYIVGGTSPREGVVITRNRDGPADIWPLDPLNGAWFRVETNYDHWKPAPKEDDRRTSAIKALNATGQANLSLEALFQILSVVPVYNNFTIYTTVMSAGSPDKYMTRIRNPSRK
Description: Fluorogenic h-NAAA assay. Type of test: biochemical. The following applies: for inhibition at […]: @ 2.5 μM. How it is done: Hek293 cells stably transfected with the human NAAA coding sequence cloned from a human spleen cDNA library were used as enzyme source. Recombinant HEK-hNAAA pellets were resuspended in homogenizing buffer, and sonicated. Samples were centrifuged at 800×g for 15 min at 4° C. and the resultant supernatants were then ultracentrifuged at 12,000×g for 30 min at 4° C. The pellets were resuspended in PBS pH 7.4 on ice and subjected to a freeze/thaw cycle at −80° C. The suspension was finally centrifuged at 105,000×g for 1 h at 4° C. Protein concentration was measured and samples aliquoted and stored at −80° C. until use.
The assay was run in Optiplate 96-wells black plates, in a total reaction volume of 200 μL. NAAA protein preparation (4.0 μg) was pre-incubated for 10 min with various concentrations of test compounds or vehicle control (5% DMSO) in 100 mM citrate/phosphate buffer (pH 4.5) containing 3.0 mM DTT, 0.1% Triton X-100, 0.05% BSA, 150 mM NaCl. N-(4-methyl-2-oxo-chromen-7-yl)-hexadecanamide was used as a substrate (5.0 μM) and the reaction carried over for 30 min at 37° C. The samples were then read in a Perkin Elmer Envision plate reader using an excitation wavelength of 360 nm and emission 460 nm. IC50 values were calculated by non-linear regression analysis of log [concentration]/inhibition curves using GraphPad Prism 5 (GraphPad Software Inc., CA—USA) applying a standard slope curve fitting.

The target of another test is T2, r-NAAA (Rattus norvegicus, UniProt Q5KTC7).
T2 construct: Lysosomal NAAA protein preparation was obtained by homogenizing male Sprague-Dawley rat lungs; tissue Charles River (animals); host or cells: male Sprague-Dawley rat lung, soluble lysosomal fraction
T2 sequence (Q5KTC7 34-362): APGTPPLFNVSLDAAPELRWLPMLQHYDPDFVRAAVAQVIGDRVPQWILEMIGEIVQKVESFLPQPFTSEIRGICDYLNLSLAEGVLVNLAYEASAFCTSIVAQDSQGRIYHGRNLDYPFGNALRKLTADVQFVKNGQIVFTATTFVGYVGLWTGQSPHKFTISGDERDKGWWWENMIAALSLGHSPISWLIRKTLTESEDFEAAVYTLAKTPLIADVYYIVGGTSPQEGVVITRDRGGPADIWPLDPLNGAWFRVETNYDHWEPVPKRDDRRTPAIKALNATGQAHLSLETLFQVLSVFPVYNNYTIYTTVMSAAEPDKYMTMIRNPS
Description: UPLC/MS r-NAAA assay. The class given is biochemical. How it is done:
Lysosomal NAAA protein preparation was obtained by homogenizing male Sprague-Dawley rat lungs (Charles River) in 20 mM Tris-HCl buffer pH 7.4 containing 0.32M sucrose. […] Supernatants were then centrifuged at 12,000 xg for 30 min at 4° C. Pellets were then resuspended in PBS pH 7.4 and subjected to a freeze/thaw cycle at −80° C. The suspension was finally centrifuged at 105,000×g for 1 h at 4° C. The supernatant was then used in the enzymatic assay.
NAAA protein preparation was pre-incubated with various concentrations of test compounds or vehicle control in 100 mM NaH2PO4/Citrate buffer, 1% Triton-X, 3 mM DTT (pH 4.5) for 30 min at 37° C. Samples were then incubated with heptadecenoylethanolamide (50 μM, Avanti Polar Lipids) at 37° C. for 30 min. The reaction was terminated by addition of cold methanol containing heptadecanoic acid (NuCheck Prep) as internal standard. Samples were then analyzed by UPLC/MS (Acquity, Waters). […] The column temperature was 40° C. Electrospray ionization was in the negative mode, capillary voltage was 0.5 kV, cone voltage was […], desolvation temperature was 500° C. N2 was used as drying gas at a flow rate of 1000 L/hour and a temperature of 500° C. […] Calibration curves were generated using commercial heptadecenoic acid (NuCheck Prep) Inhibition of NAAA activity was calculated as reduction of heptadecenoic acid in the samples compared to vehicle controls. IC50 values were calculated by non-linear regression analysis of log [concentration]/inhibition curves using GraphPad Prism 5 (GraphPad Software Inc., CA—USA) applying a standard slope curve fitting.

[1] abbreviates: read-out: h-NAAA Fluorogenic assay % inhib.

A word on the IC50: it is the midpoint of a concentration-inhibition curve. A high value points to a need for much substance. As for `CCCCC/C=C/CCOC(=O)N[C@H]1CNC1=O` [Example 9, [(E)-Non-3-enyl]-N-[(3S)-2-oxoazetidin-3-yl]-carbamate], the IC50 against human NAAA was 78 nM; against r-NAAA it was 180 nM.

Turning to `O=C(N[C@H]1CNC1=O)OCc1ccc(C23CC4CC(CC(C4)C2)C3)cc1` [Example 58, [4-(1-Adamantyl)-phenyl]-methyl-N-[(3S)-2-oxoazetidin-3-yl]-carbamate], the IC50 at human NAAA was 2100 nM; against r-NAAA it was 2700 nM.

As for `O=C(N[C@H]1CNC1=O)OCCCC1CCCC1` [Example 21, 3-Cyclopentylpropyl-N-[(3S)-2-oxoazetidin-3-yl]-carbamate], the IC50 against human NAAA worked out at 97 nM; against r-NAAA, 220 nM.

Take `CCCCC1CCC(OC(=O)N[C@H]2CNC2=O)CC1` (mixture of isomers) [Example 61, (1s,4R) and (1r,4S)-(4-Butylcyclohexyl)-N-[(3S)-2-oxoazetidin-3-yl]-carbamate]: the results for the IC50 against human NAAA and on r-NAAA were 323 nM and 700 nM, respectively.

On to `CCCCCCCCCOC(=O)N[C@H]1CNC1=O` [Example 25, Nonyl-N-[(3S)-2-oxoazetidin-3-yl]-carbamate], for which the values for the IC50 against human NAAA and against r-NAAA were 17 nM and 40 nM, respectively.

For `CCCCCCCCCCOC(=O)N[C@H]1CNC1=O` [Example 30, Decyl-N-[(3S)-2-oxoazetidin-3-yl]-carbamate], the IC50 was 25 nM on human NAAA and 55 nM against r-NAAA.

On to `COc1ccc(CCCCOC(=O)N[C@H]2CNC2=O)cc1` [Example 22, 4-(4-Methoxyphenyl)-butyl-N-[(3S)-2-oxoazetidin-3-yl]-carbamate], for which the 50% inhibitory concentration (IC50) stood at 573 nM against human NAAA and 790 nM on r-NAAA.

Take `O=C(N[C@H]1CNC1=O)OCc1ccc(C(=O)c2ccccc2)cc1` [Example 52, (4-Benzoylphenyl)-methyl-N-[(3S)-2-oxoazetidin-3-yl]-carbamate]: the IC50 against human NAAA amounted to 639 nM; on r-NAAA, 420 nM.

Regarding `O=C(N[C@H]1CNC1=O)OCc1ccc(C2CC3CCC2C3)cc1` (mixture of isomers) [Example 56, [4-(1R,2R,4S)- and (1S,2S,4R)-Norbornan-2-yl-phenyl)]-methyl-N-[(3S)-2-oxoazetidin-3-yl]-carbamate], the half-maximal inhibitory concentration (IC50) at human NAAA was found to be 39 nM; against r-NAAA it was 16 nM.

As for `O=C(N[C@H]1CNC1=O)OCCCCc1ccccc1` [Example 13, 4-Phenylbutyl-N-[(3S)-2-oxoazetidin-3-yl]-carbamate], the IC50 against human NAAA worked out at 930 nM; at r-NAAA, 2430 nM.

Regarding `C[C@@H]1NC(=O)[C@@H]1NC(=O)OCc1ccc(-c2ccccc2)cc1` [Example 84, (4-Phenylphenyl)-methyl-N-[(2S,3R)-2-methyl-4-oxo-azetidin-3-yl]-carbamate], the inhibition at […] at human NAAA (setting [1]) was found to be 18%.

In the case of `O=C(N[C@H]1CNC1=O)OCc1ccc(Cc2ccccc2)cc1` [Example 34, (4-Benzylphenyl)-methyl-N-[(3S)-2-oxoazetidin-3-yl]-carbamate], the IC50 on human NAAA was found to be 230 nM; against r-NAAA it was 300 nM.

For `O=C(N[C@H]1CNC1=O)OCC1CCC(F)(F)CC1` [Example 99, (4,4-Difluorocyclohexyl)-methyl-N-[(3S)-2-oxoazetidin-3-yl]-carbamate], the inhibition at […] at human NAAA (setting [1]) stood at 35%.

The compound `C#CCCCCCCCCCOC(=O)N[C@H]1CNC1=O` [Example 103, Undec-10-ynyl-N-[(3S)-2-oxoazetidin-3-yl]-carbamate] had an IC50 at human NAAA of 6 nM.

With `O=C(N[C@H]1CNC1=O)OCc1ccc(C(=O)N2CCOCC2)cc1` [Example 53, [4-(Morpholine-4-carbonyl)-phenyl]-methyl-N-[(3S)-2-oxoazetidin-3-yl]-carbamate], on human NAAA (@ 50 μM, read-out: h-NAAA Fluorogenic assay % inhib.), the inhibition at 50 µM was 55%.

In the case of `CCCCOc1ccc(COC(=O)N[C@H]2CNC2=O)cc1` [Example 63, (4-Butoxyphenyl)-methyl-N-[(3S)-2-oxoazetidin-3-yl]-carbamate], the concentration for half-maximal inhibition (IC50) amounted to 104 nM against human NAAA and 240 nM on r-NAAA.

With `CCCCC/C=C\CCOC(=O)N[C@H]1CNC1=O` [Example 10, [(Z)-Non-3-enyl]-N-[(3S)-2-oxoazetidin-3-yl]-carbamate], the IC50 against human NAAA turned out to be 76 nM; at r-NAAA it was 250 nM.

For the compound `O=C(N[C@H]1CNC1=O)OCc1ccc(-c2ccccc2)c(F)c1` [Example 60, (3-Fluoro-4-phenyl-phenyl)-methyl-N-[(3S)-2-oxoazetidin-3-yl]-carbamate], on human NAAA, the IC50 was determined as 237 nM.
